Laboratory results taken from PubChem BioAssay (NCI).
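Five concentrations, 48 hours, 96-well plates. GI50 is the concentration that inhibits growth by half. TGI: total growth inhibition.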

How the values were obtained:
Test in all cases: inhibition of tumour cell growth, NCI panel, 48 h
ACHN renal = system: ACHN renal
COLO 205 colon = system: COLO 205 colon
HCT-15 colon = system: HCT-15 colon
HL-60(TB) leukemia = system: HL-60(TB) leukemia
HOP-92 NSCLC = system: HOP-92 NSCLC
HT29 colon = system: HT29 colon
IGROV1 ovarian = system: IGROV1 ovarian
SF-268 CNS = system: SF-268 CNS
SN12C renal = system: SN12C renal
UACC-257 melanoma = system: UACC-257 melanoma

SMILES | TGI (ACHN renal) [µM] | TGI (COLO 205 colon) [µM] | TGI (HCT-15 colon) [µM] | TGI (HL-60(TB) leukemia) [µM] | TGI (HOP-92 NSCLC) [µM] | TGI (HT29 colon) [µM] | TGI (IGROV1 ovarian) [µM] | TGI (SF-268 CNS) [µM] | TGI (SN12C renal) [µM] | TGI (UACC-257 melanoma) [µM] | GI50 (COLO 205 colon) [µM] | GI50 (HCT-15 colon) [µM] | GI50 (HOP-92 NSCLC) [µM] | GI50 (HT29 colon) [µM] | GI50 (IGROV1 ovarian) [µM] | GI50 (SF-268 CNS) [µM] | GI50 (SN12C renal) [µM] | GI50 (ACHN renal) [µM] | GI50 (HL-60(TB) leukemia) [µM] | GI50 (UACC-257 melanoma) [µM]
CCc1nc(N)nc(N)c1-c1ccc(Cl)c(Cl)c1 | > 100 | > 100 | > 100 | > 100 | > 100 | > 100 | > 100 | > 100 | > 100 | > 100 | – | – | – | – | – | – | – | – | – | –
COc1ccccc1C1C(C(=O)O)=C(CO)Oc2cc3c(cc21)OCO3 (centres undefined) | > 100 | > 100 | > 100 | > 100 | > 100 | > 100 | > 100 | > 100 | > 100 | – | – | – | – | – | – | – | – | – | – | –
Cc1ccc(S(=O)(=O)Oc2cc(-c3ccccc3)nc3ccccc23)cc1 | – | 1.18 | > 40.3 | 6.88 | 22.9 | 7.54 | 22.2 | > 100 | > 41.5 | 52.2 | – | – | – | – | – | – | – | – | – | –
NC(Cc1cccc([N+](=O)[O-])c1)C(=O)O (centres undefined) | > 100 | > 100 | > 100 | > 100 | > 100 | > 100 | > 100 | > 100 | > 100 | > 100 | – | – | – | – | – | – | – | – | – | –
O=[N+]([O-])c1ccc(C=C2C(Cl)=C(Cl)C(Cl)=C2Cl)cc1 | – | > 100 | > 100 | – | 4.58 | 7.14 | 4.41 | 4.4 | > 100 | – | 3.2 | 3.17 | 2.05 | 2.64 | 2 | 2.01 | 3.02 | – | – | –
CC1CC=CC(O)C1 (centres undefined) | – | > 100 | > 100 | > 100 | > 100 | > 100 | > 100 | > 100 | > 100 | > 100 | – | – | – | – | – | – | – | – | – | –
Cc1ccc2c(n1)C(=O)c1[nH]c3ccccc3c1C2=O | 18.6 | 4.14 | – | 9.43 | 29 | > 100 | 4.3 | > 100 | 6.06 | 2.05 | 1.89 | – | 2.92 | 3.05 | 0.0819 | 3.82 | 2 | 2.1 | 2.67 | 0.513
NCCCNc1nc2ccccc2c2c(=O)c3cc(OC(F)(F)F)ccc3sc12 | 2.96 | – | – | 3.59 | 2.36 | – | 2.9 | – | 3.14 | – | – | – | 1.08 | – | 1.46 | – | 1.66 | 1.6 | 1.84 | –
CCC[CH2][Ge]([CH2]CCC)([CH2]CCC)[O]C(=O)CC(=O)c1ccccc1 | 16.8 | 13.3 | 10.4 | 11.5 | 9.88 | 11.1 | 13.9 | 21.6 | 15 | – | 1.55 | 0.316 | 0.331 | 0.64 | 2.2 | 4.57 | 0.538 | 2.67 | 0.138 | –
C[C@]12C=CC(=O)C=C1CC[C@H]1[C@@H]3C[C@@H](O)[C@](O)(C(=O)CO)[C@@]3(C)C[C@H](O)[C@@]12F | > 100 | > 100 | > 100 | > 100 | > 100 | > 100 | > 100 | > 100 | > 100 | > 100 | – | – | – | – | – | – | – | – | – | –
NC(N)=NCCN=C(N)N | > 100 | > 100 | > 100 | > 100 | > 100 | > 100 | > 100 | > 100 | > 100 | > 100 | – | – | – | – | – | – | – | – | – | –
NC(CCCCP(=O)(O)O)C(=O)O (centres undefined) | > 100 | > 100 | > 100 | > 100 | > 100 | > 100 | > 100 | > 100 | > 100 | > 100 | – | – | – | – | – | – | – | – | – | –
Cc1nc(N)sc1-c1ccnc(Nc2ccc(N3CCOCC3)cc2)n1 | > 100 | > 100 | > 100 | 6.08 | – | > 100 | > 33.7 | 50.7 | > 100 | > 100 | 0.488 | 0.991 | – | 2.11 | 0.846 | 1.54 | 2.24 | 0.8 | 1.99 | –
C=CC(Br)(CBr)CCC(Cl)C(C)C (centres undefined) | 8.49 | 10.2 | – | 2.38 | 4.72 | 3.17 | 8.43 | 3.07 | 3.19 | 5.97 | – | – | – | – | – | – | – | – | – | –
CC(=O)Oc1cccc2c(/C=N/NC(N)=S)ncc(C)c12 | 2.7 | > 41 | 24.1 | > 100 | 32.9 | 21.8 | 20.9 | 17.8 | 17.1 | > 41.2 | – | – | – | – | – | – | – | – | – | –
COc1ccc(C2CC(c3cccc(Nc4ccncc4)c3)=NN2c2cc(Cl)cc(Cl)c2)cc1 (centres undefined) | 3.08 | – | 3.26 | 5.12 | 2.67 | 5.46 | 3.35 | 5.62 | 3.16 | 4.92 | – | 1.7 | 1.25 | 2.26 | 1.69 | 2.2 | 1.62 | 1.7 | 2.17 | 2.16
O=NN(CCCl)C(=O)NC1CCSc2ccccc21 (centres undefined) | – | > 100 | > 100 | 48.7 | > 100 | > 100 | > 100 | > 100 | > 100 | > 100 | – | – | – | – | – | – | – | – | – | –
COc1cc(C[S+]2CCCC2)c(SC)cc1C[S+]1CCCC1 | > 100 | > 100 | > 100 | > 100 | > 100 | > 100 | > 100 | > 100 | > 100 | > 100 | – | – | – | – | – | – | – | – | – | –
CC(=O)OC1CCC2(C)C3CCC4(C)C(c5ccc(=O)oc5)CC5OC54C3CCC2(O)C1 (centres undefined) | – | 10.3 | 14.6 | 1.48 | 7.59 | 16.1 | 21 | 2.57 | 34.2 | 19.5 | – | – | – | – | – | – | – | – | – | –
c1ccc(N=C2SC(=NC3CCCCC3)N(C3CCCCC3)C2=Nc2ccccc2)cc1 | – | > 100 | > 100 | > 100 | – | > 100 | > 100 | – | > 100 | – | – | – | – | – | – | – | – | – | – | –
O=C(OC(=O)n1ccc2ccccc21)n1ccc2ccccc21 | – | > 100 | > 100 | > 100 | > 100 | > 100 | > 100 | > 100 | > 100 | > 100 | – | – | – | – | – | – | – | – | – | –
